The values that follow come from patent US20220274991A1, “SMALL MOLECULE INHIBITORS OF KU70/80 AND USES THEREOF” (Arizona Board of Regents on Behalf of the University of …, priority 2019, published 2022).

The target in the assay is T1, Ku70/80 (Homo sapiens, UniProt P12956+P13010).
T1 construct: purchased AMRI
T1 sequence (P12956 whole entry): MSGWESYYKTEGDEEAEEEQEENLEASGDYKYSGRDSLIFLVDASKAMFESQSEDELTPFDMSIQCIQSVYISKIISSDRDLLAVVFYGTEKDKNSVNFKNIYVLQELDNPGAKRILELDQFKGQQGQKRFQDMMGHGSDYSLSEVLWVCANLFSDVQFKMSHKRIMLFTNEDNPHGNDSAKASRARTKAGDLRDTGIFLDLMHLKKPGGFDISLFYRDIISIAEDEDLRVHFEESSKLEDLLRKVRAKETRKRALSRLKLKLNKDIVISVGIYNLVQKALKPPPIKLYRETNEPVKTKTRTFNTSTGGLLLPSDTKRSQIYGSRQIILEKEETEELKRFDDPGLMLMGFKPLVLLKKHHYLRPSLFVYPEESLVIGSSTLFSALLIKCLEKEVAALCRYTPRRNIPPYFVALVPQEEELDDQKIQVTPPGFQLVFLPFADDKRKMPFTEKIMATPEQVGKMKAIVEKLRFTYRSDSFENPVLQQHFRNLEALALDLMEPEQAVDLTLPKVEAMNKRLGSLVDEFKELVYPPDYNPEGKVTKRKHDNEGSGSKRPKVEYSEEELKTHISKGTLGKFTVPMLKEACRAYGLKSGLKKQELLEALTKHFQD
T1 sequence (P13010 whole entry): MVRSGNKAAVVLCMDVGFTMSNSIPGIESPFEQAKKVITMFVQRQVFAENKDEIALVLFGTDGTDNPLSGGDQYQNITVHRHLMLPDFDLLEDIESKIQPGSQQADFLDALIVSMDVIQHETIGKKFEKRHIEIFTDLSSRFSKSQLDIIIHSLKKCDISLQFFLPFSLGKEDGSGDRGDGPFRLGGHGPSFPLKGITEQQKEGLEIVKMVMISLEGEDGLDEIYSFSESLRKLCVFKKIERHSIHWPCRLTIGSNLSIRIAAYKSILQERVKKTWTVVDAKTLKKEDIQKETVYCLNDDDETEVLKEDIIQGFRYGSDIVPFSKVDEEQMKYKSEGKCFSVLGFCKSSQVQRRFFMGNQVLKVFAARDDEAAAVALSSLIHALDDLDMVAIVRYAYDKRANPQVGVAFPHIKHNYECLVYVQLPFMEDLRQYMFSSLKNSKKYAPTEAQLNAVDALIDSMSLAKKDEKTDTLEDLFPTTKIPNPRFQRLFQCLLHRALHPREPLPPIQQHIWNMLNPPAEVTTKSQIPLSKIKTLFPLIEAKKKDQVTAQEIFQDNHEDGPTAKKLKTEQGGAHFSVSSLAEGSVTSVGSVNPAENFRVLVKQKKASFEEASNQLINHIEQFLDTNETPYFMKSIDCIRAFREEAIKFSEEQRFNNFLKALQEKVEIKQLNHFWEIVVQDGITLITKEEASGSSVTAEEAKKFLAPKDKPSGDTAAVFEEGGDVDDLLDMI
Briefly: EMSA IC50 (AMRI Ku70/80). As to conditions: Hill equation fitted. It counts as binding. On the technique in general: A gel shift assay detects complexes by their altered migration in electrophoresis.
Consider `NS(=O)(=O)c1ccc(CCNc2ncc3c(=O)n(-c4cccc(F)c4)c(=O)[nH]c3n2)cc1`, for which 50 µM corresponded to half-maximal inhibition (IC50). As to `O=C(O)c1ccc(CNc2ncc3c(=O)n(-c4cccc(F)c4)c(=O)[nH]c3n2)cc1`, the IC50 (in general, the concentration that gives 50% inhibition) is 196 µM. As to `O=c1[nH]c2nc(NCCc3cccc(F)c3)ncc2c(=O)n1-c1cccnc1`, the IC50 worked out at 245 µM. The compound `O=c1[nH]c2nc(NCCc3cccnc3)ncc2c(=O)n1-c1cccc(F)c1` displayed an IC50 of 40 µM. With `O=c1[nH]c2nc(NCCc3cccc(F)c3)ncc2c(=O)n1-c1ccccn1`, the IC50 was 58 µM. For the compound `O=c1[nH]c2nc(NCCc3ccncc3)ncc2c(=O)n1-c1cccc(F)c1`, half-maximal inhibition (IC50) was put at 18 µM. The figure for `O=c1[nH]c2nc(NCCc3ccccn3)ncc2c(=O)n1-c1cccc(F)c1` is 18 µM; for `O=c1[nH]c2nc(NCCc3ccc4c(c3)OCO4)ncc2c(=O)n1-c1cccc(F)c1` it is 9.1 µM; for `O=c1[nH]c2nc(NCCc3ccc4c(c3)OC(F)(F)O4)ncc2c(=O)n1-c1cccc(F)c1` it is 20 µM. `O=c1[nH]c2nc(NCCc3ccc4c(c3)OCCO4)ncc2c(=O)n1-c1cccc(F)c1` yielded an IC50 of 20 µM. In the case of `O=c1[nH]c2nc(NCCc3ccccc3)ncc2c(=O)n1-c1cccc(F)c1`, half-maximal inhibition (IC50) required 28 µM. The figure for `CN(CCc1cccc(F)c1)c1ncc2c(=O)n(-c3cccc(F)c3)c(=O)[nH]c2n1` is 142 µM; for `COc1ccc(CCN(C)c2ncc3c(=O)n(-c4cccc(F)c4)c(=O)[nH]c3n2)cc1OC` it is 184 µM; for `COc1ccc(CCNc2ncc3c(=O)n(-c4cccc(F)c4)c(=O)[nH]c3n2)cc1F` it is 54 µM. In turn, `O=c1[nH]c2nc(NCCc3ccc(O)c(F)c3)ncc2c(=O)n1-c1cccc(F)c1` had an IC50 of 101 µM. Take `O=c1[nH]c2nc(NCCc3ccc(F)c(F)c3)ncc2c(=O)n1-c1cccc(F)c1`: the IC50 was determined as 33 µM.

In turn, `O=c1[nH]c2nc(NCC3CCCc4c(F)cccc43)ncc2c(=O)n1-c1cccc(F)c1` (stereo not drawn) came in with an IC50 of 20 µM.

On to `O=c1[nH]c2nc(NCc3cccc4c(F)cccc34)ncc2c(=O)n1-c1cccc(F)c1`, for which it took 21 µM to reach half-maximal inhibition (IC50).

As to `O=c1[nH]c2nc(N3CCc4cc(F)ccc4C3)ncc2c(=O)n1-c1cccc(F)c1`, half-maximal inhibition (IC50) required 34 µM. For the compound `O=c1[nH]c2nc(NCCc3cccc(F)c3)ncc2c(=O)n1-c1cc(F)ccc1F`, the half-inhibitory concentration (IC50) came out at 249 µM. As to `COc1c(F)cccc1-n1c(=O)[nH]c2nc(NCCc3cccc(F)c3)ncc2c1=O`, the midpoint of inhibition, the IC50, lay at 27 µM. `COc1ccc(-n2c(=O)[nH]c3nc(NCCc4cccc(F)c4)ncc3c2=O)cc1F` showed an IC50 of 11 µM.

With `CCOC(=O)c1cccc(-n2c(=O)[nH]c3nc(NCCc4cccc(F)c4)ncc3c2=O)c1`, the IC50 amounted to 11 µM.

Regarding `COc1ccc(-n2c(=O)[nH]c3nc(NCCc4cccc(F)c4)ncc3c2=O)cc1OC`, 22 µM corresponded to half-maximal inhibition (IC50). Regarding `O=c1[nH]c2nc(NCCc3cccc(F)c3)ncc2c(=O)n1Cc1ccccc1F`, the half-maximal inhibitory concentration (IC50) was 10 µM. As to `O=c1[nH]c2nc(NCCc3cccc(F)c3)ncc2c(=O)n1-c1nccs1`, the 50% inhibitory concentration (IC50) is 43 µM. The result for `O=c1[nH]c2nc(NCCc3cccc(F)c3)ncc2c(=O)n1CC1CCNCC1` reads 45 µM; that for `CC(C)Cn1c(=O)[nH]c2nc(NCCc3cccc(F)c3)ncc2c1=O`, 5.3 µM. `O=c1[nH]c2nc(NCCc3cccc(F)c3)ncc2c(=O)n1CCO` displayed an IC50 of 8.8 µM.

`NS(=O)(=O)c1ccc(-n2c(=O)[nH]c3nc(NCCc4cccc(F)c4)ncc3c2=O)cc1`: the midpoint of inhibition, the IC50, lay at 6.9 µM. Compound `O=c1[nH]c2nc(NCCc3cccc(F)c3)ncc2c(=O)n1-c1ccc(N2CCOCC2)c(F)c1` yielded an IC50 of 6.9 µM. `O=c1[nH]c2nc(NCCc3cccc(F)c3)ncc2c(=O)n1-c1ccc(Br)cc1` yielded a half-inhibitory concentration (IC50) of 7.6 µM. Take `CSc1ncc2c(=O)n(-c3ccc(Br)cc3)c(=O)[nH]c2n1`: the IC50 is 20 µM.
